The text below walks through data of ChEMBL document CHEMBL5291721, “A preclinical secondary pharmacology resource illuminates target-adverse drug reaction associations of marketed drugs” (Nat Commun, 2023).

In assay [1] the target is T1, Alpha-2B adrenergic receptor (Homo sapiens, UniProt P18089).
T1 sequence (P18089 whole entry): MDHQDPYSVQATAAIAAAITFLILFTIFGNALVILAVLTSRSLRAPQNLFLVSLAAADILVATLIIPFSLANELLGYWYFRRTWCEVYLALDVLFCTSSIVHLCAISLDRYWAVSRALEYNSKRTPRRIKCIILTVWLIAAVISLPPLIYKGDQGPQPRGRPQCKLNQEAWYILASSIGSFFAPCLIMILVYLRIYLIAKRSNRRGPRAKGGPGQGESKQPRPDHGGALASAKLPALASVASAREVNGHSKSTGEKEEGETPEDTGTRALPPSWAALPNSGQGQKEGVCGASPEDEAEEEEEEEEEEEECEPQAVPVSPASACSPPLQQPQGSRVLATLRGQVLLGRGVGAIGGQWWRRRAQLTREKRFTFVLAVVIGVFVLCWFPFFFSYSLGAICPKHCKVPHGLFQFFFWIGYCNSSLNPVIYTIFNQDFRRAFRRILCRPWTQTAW

For assay [2], the target named is Gamma-aminobutyric acid receptor subunit alpha-1 (Rattus norvegicus, UniProt P62813). Type of assay: functional.
Sequence of Gamma-aminobutyric acid receptor subunit alpha-1 (P62813 whole entry): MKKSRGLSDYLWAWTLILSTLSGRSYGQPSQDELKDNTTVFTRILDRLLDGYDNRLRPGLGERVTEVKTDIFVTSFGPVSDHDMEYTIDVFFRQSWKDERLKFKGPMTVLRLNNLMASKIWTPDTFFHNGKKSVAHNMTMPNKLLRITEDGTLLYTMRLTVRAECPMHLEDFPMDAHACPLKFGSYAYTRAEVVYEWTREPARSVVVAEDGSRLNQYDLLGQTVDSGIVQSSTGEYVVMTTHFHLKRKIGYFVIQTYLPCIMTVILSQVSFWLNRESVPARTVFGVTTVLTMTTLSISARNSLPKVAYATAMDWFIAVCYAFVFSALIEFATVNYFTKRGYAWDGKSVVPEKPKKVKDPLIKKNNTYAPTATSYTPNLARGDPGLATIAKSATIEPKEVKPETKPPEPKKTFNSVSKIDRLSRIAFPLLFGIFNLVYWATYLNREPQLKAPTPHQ
Assay [3] concerns the target Growth hormone secretagogue receptor type 1 (Homo sapiens, UniProt Q92847).
The target in assay [4] is D(1A) dopamine receptor (Homo sapiens, UniProt P21728). The format is functional, cell-based.
Sequence of D(1A) dopamine receptor (P21728 whole entry): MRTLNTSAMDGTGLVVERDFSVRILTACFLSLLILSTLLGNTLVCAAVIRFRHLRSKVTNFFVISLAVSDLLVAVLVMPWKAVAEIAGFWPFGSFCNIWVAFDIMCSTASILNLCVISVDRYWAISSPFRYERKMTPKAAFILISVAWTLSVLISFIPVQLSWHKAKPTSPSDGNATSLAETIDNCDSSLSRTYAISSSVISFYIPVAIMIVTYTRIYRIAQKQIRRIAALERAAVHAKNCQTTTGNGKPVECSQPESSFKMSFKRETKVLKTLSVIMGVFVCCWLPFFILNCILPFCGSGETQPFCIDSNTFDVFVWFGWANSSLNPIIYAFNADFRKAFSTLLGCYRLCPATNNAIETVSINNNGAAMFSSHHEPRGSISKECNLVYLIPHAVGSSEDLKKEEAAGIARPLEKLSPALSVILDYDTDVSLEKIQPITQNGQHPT
Assay [5] concerns the target T2, Alpha-1A adrenergic receptor (Homo sapiens, UniProt P35348).
T2 sequence (P35348 whole entry): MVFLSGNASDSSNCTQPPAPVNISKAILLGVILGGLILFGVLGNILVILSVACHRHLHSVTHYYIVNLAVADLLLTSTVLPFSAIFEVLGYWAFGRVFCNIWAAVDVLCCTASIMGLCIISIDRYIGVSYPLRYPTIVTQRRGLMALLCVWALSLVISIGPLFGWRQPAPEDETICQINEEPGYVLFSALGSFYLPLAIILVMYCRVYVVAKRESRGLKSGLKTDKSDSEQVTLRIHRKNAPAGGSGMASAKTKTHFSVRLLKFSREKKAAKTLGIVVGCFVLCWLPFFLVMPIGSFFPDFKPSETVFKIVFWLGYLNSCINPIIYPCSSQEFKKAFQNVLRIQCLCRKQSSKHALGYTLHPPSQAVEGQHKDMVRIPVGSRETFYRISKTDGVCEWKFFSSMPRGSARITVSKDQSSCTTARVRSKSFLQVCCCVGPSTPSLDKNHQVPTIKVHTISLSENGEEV
The format is functional, cell-based.

In assay [6] the target is T3, 5-hydroxytryptamine receptor 1A (Homo sapiens, UniProt P08908).
T3 sequence (P08908 whole entry): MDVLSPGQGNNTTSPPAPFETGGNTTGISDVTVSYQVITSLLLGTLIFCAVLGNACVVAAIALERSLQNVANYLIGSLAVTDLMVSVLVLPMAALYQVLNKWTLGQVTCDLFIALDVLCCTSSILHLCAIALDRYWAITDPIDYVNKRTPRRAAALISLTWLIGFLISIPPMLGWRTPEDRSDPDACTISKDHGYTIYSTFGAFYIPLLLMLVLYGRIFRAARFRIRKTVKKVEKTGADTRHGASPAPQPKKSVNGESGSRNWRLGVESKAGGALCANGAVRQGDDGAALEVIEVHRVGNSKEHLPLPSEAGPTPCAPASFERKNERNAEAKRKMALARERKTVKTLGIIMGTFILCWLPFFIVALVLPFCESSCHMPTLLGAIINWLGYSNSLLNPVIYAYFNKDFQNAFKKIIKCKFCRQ
Type of assay: functional, cell-based.

Assay [7] concerns the target Melanocortin receptor 3 (Homo sapiens, UniProt P41968).
Assay [8] concerns the target Sodium-dependent noradrenaline transporter (Homo sapiens, UniProt P23975).
Assay [9] deals with T4, Type-1 angiotensin II receptor (Homo sapiens, UniProt P30556).
T4 sequence (P30556 whole entry): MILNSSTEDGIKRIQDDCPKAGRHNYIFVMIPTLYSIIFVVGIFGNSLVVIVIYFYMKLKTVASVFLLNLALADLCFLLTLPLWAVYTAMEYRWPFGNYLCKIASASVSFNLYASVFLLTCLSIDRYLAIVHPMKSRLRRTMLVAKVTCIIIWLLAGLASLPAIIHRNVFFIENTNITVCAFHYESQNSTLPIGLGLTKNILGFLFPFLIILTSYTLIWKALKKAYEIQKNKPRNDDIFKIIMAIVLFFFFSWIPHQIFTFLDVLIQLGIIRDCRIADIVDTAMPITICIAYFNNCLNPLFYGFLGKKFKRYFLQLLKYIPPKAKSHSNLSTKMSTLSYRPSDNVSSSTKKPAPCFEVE

Assay [10] deals with T5, Gastrin/cholecystokinin type B receptor (Homo sapiens, UniProt P32239).
T5 sequence (P32239 whole entry): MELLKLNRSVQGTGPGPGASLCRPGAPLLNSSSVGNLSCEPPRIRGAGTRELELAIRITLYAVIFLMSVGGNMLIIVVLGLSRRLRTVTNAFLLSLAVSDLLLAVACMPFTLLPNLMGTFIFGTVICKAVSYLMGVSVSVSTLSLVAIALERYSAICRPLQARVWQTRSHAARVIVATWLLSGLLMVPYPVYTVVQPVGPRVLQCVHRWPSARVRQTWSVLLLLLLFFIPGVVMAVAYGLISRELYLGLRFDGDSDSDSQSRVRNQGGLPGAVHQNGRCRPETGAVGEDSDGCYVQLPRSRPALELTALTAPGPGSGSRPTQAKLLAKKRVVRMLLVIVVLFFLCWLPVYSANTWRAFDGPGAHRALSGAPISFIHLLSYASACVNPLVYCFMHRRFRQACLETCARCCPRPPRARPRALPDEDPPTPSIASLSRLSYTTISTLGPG

The target in assay [11] is Beta-2 adrenergic receptor (Homo sapiens, UniProt P07550). The format is functional, cell-based.
Sequence of Beta-2 adrenergic receptor (P07550 whole entry): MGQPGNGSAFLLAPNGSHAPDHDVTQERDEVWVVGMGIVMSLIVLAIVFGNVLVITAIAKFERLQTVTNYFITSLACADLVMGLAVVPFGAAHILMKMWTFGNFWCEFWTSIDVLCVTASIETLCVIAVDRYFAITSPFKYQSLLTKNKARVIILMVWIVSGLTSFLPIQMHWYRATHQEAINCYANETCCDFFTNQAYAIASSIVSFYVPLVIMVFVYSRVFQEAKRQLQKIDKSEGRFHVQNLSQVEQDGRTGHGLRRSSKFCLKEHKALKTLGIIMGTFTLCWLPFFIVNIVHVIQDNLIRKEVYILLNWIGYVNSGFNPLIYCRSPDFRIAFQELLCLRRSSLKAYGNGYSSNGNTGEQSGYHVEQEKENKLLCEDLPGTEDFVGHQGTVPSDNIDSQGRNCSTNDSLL
For assay [12], the target named is T6, Thromboxane A2 receptor (Homo sapiens, UniProt P21731).
T6 sequence (P21731 whole entry): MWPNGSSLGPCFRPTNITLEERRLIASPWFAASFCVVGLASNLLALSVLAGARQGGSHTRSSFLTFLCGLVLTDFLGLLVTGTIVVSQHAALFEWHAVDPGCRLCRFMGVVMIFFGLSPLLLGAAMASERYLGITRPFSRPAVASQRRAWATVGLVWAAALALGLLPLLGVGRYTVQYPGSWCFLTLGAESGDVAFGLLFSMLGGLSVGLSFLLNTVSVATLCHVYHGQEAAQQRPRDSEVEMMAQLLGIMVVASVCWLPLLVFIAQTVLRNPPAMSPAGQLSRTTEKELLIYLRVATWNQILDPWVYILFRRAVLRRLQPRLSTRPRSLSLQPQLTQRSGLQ

The AC50 is the concentration at which the activity in the assay is half-maximal.
Further: assay procedure not described here.

Sequence of Sodium-dependent noradrenaline transporter (P23975 whole entry): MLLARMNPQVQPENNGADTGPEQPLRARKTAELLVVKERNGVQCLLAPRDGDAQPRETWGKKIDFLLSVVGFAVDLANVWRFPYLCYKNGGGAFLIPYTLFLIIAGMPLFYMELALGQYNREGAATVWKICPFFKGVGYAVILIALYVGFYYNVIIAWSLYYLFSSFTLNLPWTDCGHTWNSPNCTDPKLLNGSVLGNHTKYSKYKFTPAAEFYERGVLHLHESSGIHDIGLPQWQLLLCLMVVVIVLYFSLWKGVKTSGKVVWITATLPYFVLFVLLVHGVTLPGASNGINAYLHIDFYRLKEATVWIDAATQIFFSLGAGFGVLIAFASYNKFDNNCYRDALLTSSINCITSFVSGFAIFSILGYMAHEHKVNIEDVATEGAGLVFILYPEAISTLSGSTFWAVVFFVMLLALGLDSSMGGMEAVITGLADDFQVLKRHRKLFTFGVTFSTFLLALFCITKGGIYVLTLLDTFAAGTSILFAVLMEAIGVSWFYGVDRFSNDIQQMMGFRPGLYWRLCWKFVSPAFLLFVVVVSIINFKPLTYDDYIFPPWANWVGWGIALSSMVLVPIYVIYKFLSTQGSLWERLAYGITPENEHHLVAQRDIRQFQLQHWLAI
Sequence of Growth hormone secretagogue receptor type 1 (Q92847 whole entry): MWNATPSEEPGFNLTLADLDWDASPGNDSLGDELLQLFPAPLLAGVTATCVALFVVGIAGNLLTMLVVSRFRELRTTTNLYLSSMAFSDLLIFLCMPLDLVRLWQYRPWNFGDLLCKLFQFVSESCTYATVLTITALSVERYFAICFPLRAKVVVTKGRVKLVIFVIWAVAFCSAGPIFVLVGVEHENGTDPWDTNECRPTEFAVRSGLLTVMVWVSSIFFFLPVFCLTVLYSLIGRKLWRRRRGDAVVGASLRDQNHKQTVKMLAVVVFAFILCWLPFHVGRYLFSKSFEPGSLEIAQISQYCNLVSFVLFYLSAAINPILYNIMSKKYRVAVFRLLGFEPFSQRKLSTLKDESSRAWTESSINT
Sequence of Melanocortin receptor 3 (P41968 whole entry): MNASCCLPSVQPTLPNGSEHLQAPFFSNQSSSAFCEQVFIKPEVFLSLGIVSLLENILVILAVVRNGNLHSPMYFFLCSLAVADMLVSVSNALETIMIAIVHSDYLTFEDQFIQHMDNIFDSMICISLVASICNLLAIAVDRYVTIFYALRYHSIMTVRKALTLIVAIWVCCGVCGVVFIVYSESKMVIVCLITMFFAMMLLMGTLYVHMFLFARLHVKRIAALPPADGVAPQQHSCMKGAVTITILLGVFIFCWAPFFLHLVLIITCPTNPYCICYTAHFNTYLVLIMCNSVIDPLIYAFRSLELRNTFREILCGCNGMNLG

As to `CC[C@@H](C(N)=O)N1CCCC1=O`, the concentration at half-maximal activity (AC50) in assay [1], in assay [2], in [3], in [4], in assay [5] and in [6] was above 30 µM throughout. Besides, the AC50 in assay [7], in assay [8], in [9], in assay [10] and in assay [11] was above 30 µM in each case.
For the compound `CN(C)CCC=C1c2ccccc2C=Cc2ccccc21` [CYCLOBENZAPRINE], the AC50 in [1] was above 10 µM; in assay [2] it was above 10 µM; in assay [3], above 30 µM; in [12], above 30 µM; in assay [4], above 10 µM; in [5] it was 0.47 µM. For the same compound, the AC50 in [6] was above 10 µM; in assay [7] it was above 30 µM; in assay [8], 0.378 µM; in assay [9], above 30 µM; in [10] it was above 30 µM; in [11], above 30 µM.
`COc1ccc(C(=O)Nc2ccccc2CCC2CCCCN2C)cc1` (centres undefined) [ENCAINIDE]: the AC50 in [1] is above 10 µM; in [2] it was above 10 µM; in assay [3] it was above 30 µM; in assay [12] it was above 30 µM; in [4] it was above 10 µM; in assay [5], above 30 µM. The AC50 in assay [6] was above 10 µM; in [7], above 30 µM; in assay [8], above 10 µM; in assay [9], above 30 µM; in assay [10] it was above 30 µM; in assay [11] it was above 30 µM.
As for `CCOc1ccccc1OCC1CNCCO1` (centres undefined) [VILOXAZINE], the AC50 in assay [1] is above 10 µM; in assay [2] it was above 10 µM; in [3], above 30 µM; in assay [12], above 30 µM; in assay [4], above 10 µM; in assay [5] it was above 30 µM. Also, the AC50 is above 10 µM in assay [6]; above 30 µM in [7]; 0.97 µM in assay [8]; above 30 µM in [9]; above 30 µM in assay [10]; above 30 µM in assay [11].
As to `CN(C)CC/C=C1\c2ccccc2CSc2ccccc21` [DOTHIEPIN], the AC50 in assay [1] is 1.3 µM; in assay [2] it was above 30 µM; in assay [3], above 30 µM; in assay [12] it was above 30 µM; in assay [4], above 30 µM; in assay [5], 0.87 µM. The AC50 in [6] was above 30 µM; in [7], 25 µM; in [8] it was 0.8 µM; in assay [9], above 30 µM; in assay [10], above 30 µM; in assay [11], above 30 µM.
`CN(C)CCc1c[nH]c2ccc(C[C@H]3COC(=O)N3)cc12` [ZOLMITRIPTAN]: the AC50 in [1], in [2], in assay [3], in assay [4], in assay [7] and in assay [8] was above 30 µM throughout. The AC50 in assay [9], in [10] and in [11] was above 30 µM in each case.
In the case of `CC[C@H]1CN2CCc3cc(OC)c(OC)cc3[C@@H]2C[C@@H]1C[C@H]1NCCc2cc(OC)c(OC)cc21` [EMETINE], the concentration at half-maximal activity (AC50) in assay [2], in assay [3], in [12], in assay [4], in assay [5] and in assay [6] was above 30 µM throughout. Also, the AC50 in [7], in assay [8], in assay [9], in [10] and in assay [11] was above 30 µM each time.
